{"source": "ChEMBL document CHEMBL1157277", "about": "“Antifungal and antibacterial metabolites from a sclerotium-colonizing isolate of Mortierella vinacea” (1999)", "key": {"Fusarium verticillioides [1]": {"tested_on": "Fusarium verticillioides", "assay": "Antimicrobial activity against Fusarium verticillioides NRRL 25457 at 250 ug/disk by standard disk assay after 48 hrs", "format": "functional", "conditions": "for zone of inhibition at 250 µg/disc: NRRL 25457, 48 h, read-out: IZ"}, "Aspergillus flavus": {"tested_on": "Aspergillus flavus", "assay": "Antimicrobial activity against Aspergillus flavus NRRL 6541 at 250 ug/disk by standard disk assay", "format": "functional, organism-based"}, "Staphylococcus aureus [2]": {"tested_on": "Staphylococcus aureus", "assay": "Antimicrobial activity against Staphylococcus aureus ATCC 14053 at 100 ug/disk by standard disk assay", "format": "functional", "conditions": "read-out: IZ"}, "Bacillus subtilis [3]": {"tested_on": "Bacillus subtilis", "assay": "Antimicrobial activity against Bacillus subtilis ATCC 6051 at 100 ug/disk by standard disk assay", "format": "functional", "conditions": "read-out: IZ"}, "Candida albicans [4]": {"tested_on": "Candida albicans", "assay": "Antimicrobial activity against Candida albicans ATCC 10453 at 50 ug/disk by standard disk assay", "format": "functional", "conditions": "read-out: IZ"}, "Candida albicans [5]": {"tested_on": "Candida albicans", "assay": "Antimicrobial activity against Candida albicans ATCC 10453 at 100 ug/disk by standard disk assay", "format": "functional", "conditions": "read-out: IZ"}, "Bacillus subtilis [6]": {"tested_on": "Bacillus subtilis", "assay": "Antimicrobial activity against Bacillus subtilis ATCC 6051 at 50 ug/disk by standard disk assay", "format": "functional, organism-based"}, "Staphylococcus aureus [7]": {"tested_on": "Staphylococcus aureus", "assay": "Antimicrobial activity against Staphylococcus aureus ATCC 14053 at 50 ug/disk by standard disk assay", "format": "functional, organism-based"}, "Fusarium verticillioides [8]": {"tested_on": "Fusarium verticillioides", "assay": "Antimicrobial activity against Fusarium verticillioides NRRL 25457 at 100 ug/disk by standard disk assay after 48 hrs", "format": "functional, organism-based"}}, "note": "Activity calls are given as the source filed them. No cut-off for these calls is given here."}
{"molecule": "COC(=O)c1c(C)c(C)c(O)c(C)c1O", "values": [{"measurement": "zone of inhibition at 250 µg/disc", "setting": "Fusarium verticillioides [1]", "result": 30, "unit": "mm"}, {"measurement": "Activity", "setting": "Aspergillus flavus", "result": "inactive"}, {"measurement": "zone of inhibition at 100 µg/disc", "setting": "Staphylococcus aureus [2]", "result": 10, "unit": "mm"}, {"measurement": "zone of inhibition at 100 µg/disc", "setting": "Bacillus subtilis [3]", "result": 10, "unit": "mm"}]}
{"molecule": "COC(=O)CNC(=O)c1c(C)c(C)c(O)c(C)c1O", "values": [{"measurement": "Activity", "setting": "Fusarium verticillioides [1]", "result": "inactive"}, {"measurement": "Activity", "setting": "Aspergillus flavus", "result": "inactive"}]}
{"molecule": "COC(=O)[C@H](C)NC(=O)c1c(C)c(C)c(O)c(C)c1O", "values": [{"measurement": "Activity", "setting": "Fusarium verticillioides [1]", "result": "inactive"}, {"measurement": "Activity", "setting": "Aspergillus flavus", "result": "inactive"}]}
{"molecule": "CCCCC[C@@H](O)[C@H]1C(=O)O[C@H](C)[C@@H](O)/C=C/C=C/C=C/C=C/C=C(\\C)[C@@H](O)C[C@H](O)C[C@H](O)C[C@H](O)C[C@H](O)C[C@H](O)C[C@@H]1O", "note": "[FILIPIN]", "values": [{"measurement": "zone of inhibition at 50 µg/disc", "setting": "Candida albicans [4]", "result": 15, "unit": "mm"}]}
{"molecule": "CSC(=O)c1c(C)c(C)c(O)c(C)c1O", "note": "[MORTIVINACIN A]", "values": [{"measurement": "zone of inhibition at 250 µg/disc", "setting": "Fusarium verticillioides [1]", "result": 30, "unit": "mm"}, {"measurement": "zone of inhibition at 100 µg/disc", "setting": "Candida albicans [5]", "result": 15, "unit": "mm"}, {"measurement": "Activity", "setting": "Aspergillus flavus", "result": "inactive"}]}
{"molecule": "O=C(O)c1cccnc1", "note": "[NIACIN]", "values": [{"measurement": "zone of inhibition at 250 µg/disc", "setting": "Fusarium verticillioides [1]", "result": 30, "unit": "mm"}, {"measurement": "Activity", "setting": "Aspergillus flavus", "result": "inactive"}]}
{"molecule": "GENTAMICIN SULFATE", "values": [{"measurement": "inhibition zone (IZ)", "setting": "Bacillus subtilis [6]", "result": 24, "unit": "mm"}, {"measurement": "inhibition zone (IZ)", "setting": "Staphylococcus aureus [7]", "result": 24, "unit": "mm"}]}
{"molecule": "NYSTATIN", "values": [{"measurement": "inhibition zone (IZ)", "setting": "Fusarium verticillioides [8]", "result": 19, "unit": "mm"}]}
